According to patent US20080146630A1, “CRYSTAL FORM OF 2-(3-FLUORO-4-HYDROXYPHENYL)-7-VINYL-1,3-BENZOXAZOL-5-OL” (WYETH, priority 2006, published 2008):

Assay: Conversion of Form E on suspending and stirring in solvent (slurry)
Type: physicochemical
Description: The anhydrate crystal form (Form E) can be converted to other crystal forms under suitable conditions.

- crystal form conversion after suspension and stirring (suspended and stirred in water at room temperature for seven days): converted to a hydrate crystal form
SMILES: C=Cc1cc(O)cc2nc(-c3ccc(O)c(F)c3)oc12 [Form E, 2-(3-fluoro-4-hydroxyphenyl)-7-vinyl-1,3-benzoxazol-5-ol]
- crystal form conversion after suspension and stirring (suspended and stirred in acetone at room temperature for seven days): another anhydrate crystal form is obtained
- crystal form conversion after suspension and stirring (suspended and stirred in ethanol at room temperature for seven days): another anhydrate crystal form is obtained
